Experimental data taken from US20230002346A1, “NEW COMPOUNDS AND METHODS” (BenevolentAl Bio Limited, priority 2019, published 2023).
pIC50: −log10 of the molar value. Converted amounts (≈) assume the structure as drawn.

Experiments:
[1] = Brain to plasma (B:P) ratio in rat; format: in vivo, Sprague Dawley Rats; details: male, Sprague Dawley, po, p.o. 3.0 mg/kg, 30% HPBC in water; for Kp: timepoints averaged 0.5-4 h
Experimental: Male Sprague Dawley Rats 300-350 g (Charles River, UK) were group housed, n=3, under a 12 h light/dark cycle with food and water available ad libitum. At 17:00 on the day prior to dosing all food was removed. On the day of dosing animals were weighed, tail marked and dosed via oral gavage with compound at 3 mg/kg in a volume of 5 mL/kg. Animals were culled at 30 min, 1 h and 4 h post dose via intra-peritoneal administration of pentobarbital. Post mortem blood was withdrawn via cardiac puncture, and briefly stored in K2 EDTA blood tubes on ice before being spun at 14,000 g for 4 min at 4° C. Plasma was withdrawn into a 96 well plate, placed on dry ice and stored at −80° C. Brains were quickly dissected and placed on dry ice before storage at −80° C. Bioanalysis of plasma and brain samples is performed as detailed below. Methods were prepared with guidance from industry standard documents.^i,ii […] Calibration lines are prepared in control male Sprague-Dawley Rat plasma at known concentrations in the range of 1-10000 ng/mL by spiking 2.5 μL of calibration spiking solution into 25 μL control plasma. Experimental samples are thawed to RT and 25 μL aliquots are extracted alongside the calibration lines using protein precipitation (agitation for at least 5 min at RT with 400 μL of MeCN containing 25 ng/mL tolbutamide as an internal standard). Protein precipitates are separated from the extracted test compound by centrifugation at 4000 rpm for 5 min, 4° C. […] Samples are analysed by UPLC-MS/MS on either an API6500 QTrap or Waters 30 TQS mass spectrometer using previously optimised analytical MRM (multiple reaction monitoring) methods, specific to the test compound. The concentration of test compound in isolated samples is determined following analysis of the samples against the two replicates of the calibration line, injected before and after the sample set with an appropriate regression and weighting used. Only samples within 20% of the expected test concentration are included in the calibration line and any samples that fall outside of the limits of the calibration line will be deemed to be less than or above the limit of quantification (LLoQ/ALoQ). […] Calibration lines are prepared in control male Sprague-Dawley Rat brain homogenate at known concentrations in the range of 3-30000 ng/g by spiking 2.5 μL of calibration spiking solution into 25 μL control homogenate. To prepare control and experimental brain homogenates, brains are thawed, weighed and a volume of diluent added (water) in the ratio of 2 mL per gram of brain. Homogenisation of brains is performed by bead-beater homogenisation using Precellys Evolution and CK14 7 mL small ceramic bead homogenisation tubes. Aliquots of 25 μL experimental sample are extracted alongside the calibration lines using protein precipitation (agitation for at least 5 min at RT with 400 μL of MeCN containing 25 ng/mL tolbutamide as an internal standard). Protein precipitates are separated from the extracted test compound by centrifugation at 4000 rpm for 5 min, 4° C. […] Samples are analysed by UPLC-MS/MS on either an API6500 QTrap or Waters TQS mass spectrometer using previously optimised analytical MRM (multiple reaction monitoring) methods, specific to the test compound. The concentration of test compound in isolated samples is determined following analysis of the samples against the two replicates of the calibration line, injected before and after the sample set with an appropriate regression and weighting used. Only samples within 20% of the expected test concentration are included in the calibration line and any samples that fall outside of the limits of the calibration line will be deemed to be less than or above the limit of quantification (LLoQ/ALoQ). Total brain to plasma (B:P) ratios were calculated by dividing the concentration in the brain by the concentration in plasma for each timepoint. The mean brain to plasma ratio is calculated by averaging these brain to plasma ratios across certain timepoints. […]

hERG channel = molecular target: T1, hERG channel (Homo sapiens, UniProt Q12809); experiment: hERG assay (QPatch automated patch clamp, CHO cells); format: cell-based; details: CHO cells expressing hERG, whole-cell patch clamp, 0.003 μM to 10 μM
T1 construct: expressed in transfected cells
T1 sequence (Q12809 whole entry): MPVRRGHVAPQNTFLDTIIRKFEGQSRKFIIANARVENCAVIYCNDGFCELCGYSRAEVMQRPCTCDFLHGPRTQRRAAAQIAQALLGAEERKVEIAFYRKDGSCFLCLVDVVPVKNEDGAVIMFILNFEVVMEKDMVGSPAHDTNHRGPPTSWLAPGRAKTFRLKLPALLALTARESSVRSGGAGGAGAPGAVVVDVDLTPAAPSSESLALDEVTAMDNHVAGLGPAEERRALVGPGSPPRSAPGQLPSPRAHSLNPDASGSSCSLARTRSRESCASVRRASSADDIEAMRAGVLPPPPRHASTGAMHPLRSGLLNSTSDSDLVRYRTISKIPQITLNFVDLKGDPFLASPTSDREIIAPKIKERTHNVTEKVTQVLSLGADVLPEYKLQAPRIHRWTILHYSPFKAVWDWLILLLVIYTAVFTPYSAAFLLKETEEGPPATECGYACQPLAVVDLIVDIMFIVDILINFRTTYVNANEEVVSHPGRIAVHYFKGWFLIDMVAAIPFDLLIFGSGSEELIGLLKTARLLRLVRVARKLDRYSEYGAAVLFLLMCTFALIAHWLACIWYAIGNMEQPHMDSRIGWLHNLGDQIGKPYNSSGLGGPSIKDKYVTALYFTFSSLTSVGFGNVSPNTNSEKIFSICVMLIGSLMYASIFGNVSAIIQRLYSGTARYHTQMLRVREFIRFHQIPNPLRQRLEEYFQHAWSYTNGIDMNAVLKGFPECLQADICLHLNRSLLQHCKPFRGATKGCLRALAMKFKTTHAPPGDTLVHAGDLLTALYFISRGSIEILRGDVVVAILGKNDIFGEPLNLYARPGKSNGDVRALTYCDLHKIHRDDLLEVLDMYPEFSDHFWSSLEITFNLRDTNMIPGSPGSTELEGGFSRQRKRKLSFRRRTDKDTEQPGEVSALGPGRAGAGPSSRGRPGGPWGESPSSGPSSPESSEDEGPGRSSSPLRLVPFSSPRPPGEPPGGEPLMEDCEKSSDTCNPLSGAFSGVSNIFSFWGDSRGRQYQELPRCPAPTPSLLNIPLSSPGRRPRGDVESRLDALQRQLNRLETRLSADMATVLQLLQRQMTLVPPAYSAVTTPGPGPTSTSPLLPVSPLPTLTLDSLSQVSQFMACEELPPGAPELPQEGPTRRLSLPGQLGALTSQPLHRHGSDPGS
From the text: The human ether-a-go-go related gene (hERG) potassium channel (Kv11.1) contributes to human cardiac action potential repolarisation. Inhibition of hERG channels can prolong the human cardiac action potential, resulting in QTc prolongation and potentially lethal arrhythmias (e.g. Torsade de Pointes).
Test samples were screened against the hERG channel on a QPatch 48 gigaseal automated patch clamp platform, using a Chinese Hamster Ovary (CHO) cell line stably expressing the human ether-á-go-go related gene, which encodes the hERG channel. All recordings were made in the conventional whole-cell configuration and performed at RT ([…]) using standard single hole chips (Rchip 1.5-4M0). Series resistance (4-15Mc) was compensated by >80%. Currents were elicited from a holding potential of −90 mV using the industry standard “^+40/−40” voltage protocol, which was applied at a stimulus frequency of 0.1 Hz. On achieving the whole-cell configuration, vehicle (0.1% DMSO v/v in external recording solution) was applied to each cell in two bolus additions with a 2 min recording period between each addition. Following the vehicle period, eight increasing concentrations of test sample were applied from 0.003 μM to 10 μM as a single bolus addition per test concentration, and the effects on hERG tail current amplitude measured during the 2 min recording period. Each eight-point concentration-response curve was constructed using cumulative single sample additions of each concentration to the same cell. The positive control used in this study was verapamil hydrochloride (Tocris, Cat #0654, Batch #5A/61673) and prepared to a stock concentration of 10 mM in 100% DMSO and kept as frozen aliquots.
Data analysis: All cells passing the QC parameters (i.e. >200 pA outward current, membrane resistance and rundown) are selected as ‘passed QC’ using the QPatch software, which then calculates the mean peak current for the last three sweeps at the end of each concentration application period from the cursor positions defined. Percent inhibition is calculated for each test concentration application period as the reduction in mean cursor value (peak current or charge) relative to the cursor value measured at the end of the control (i.e. vehicle) period. The percent inhibition values from each cell are used to construct concentration-response curves employing a four parametric logistic fit with 0 and 100% inhibition levels fixed at very low and very high concentrations, respectively, and a free Hill slope factor. The IC50 (50% inhibitory concentration) and Hill coefficient are then determined, but only data from cells with Hill slopes within 0.5>nH<2.0 are included. The IC50 data reported below represents the mean (and S.D.) of at least three separate cells (N≥3). […] Compounds of the invention show reduced hERG inhibitory activity compared to the reference examples.

[2] = Kinetic aqueous solubility assay; format: physicochemical; details: aqueous buffer, kinetic from dmso stock, 0.05M potassium phosphate buffer pH 7.4, 250 μM spike, RT
Experimental: Using a 10 mM stock solution of test compound in 100% DMSO, test compounds were spiked into 0.05M potassium phosphate buffer (pH 7.4) at a final concentration of 250 μM. Samples in buffer (n=2 aqueous samples, in 96-well plates) were allowed to equilibrate at RT on an orbital shaker for 30 min (300 rpm) to induce precipitation of test compounds. The appearance of each sample was determined by visual examination and noted (clear, cloudy, precipitate observed etc.). […] The concentration of compound in phosphate buffer filtrate was determined by comparing the UV absorbance peak area of each replicate against that of the calibration standards. […] Compounds of the invention have much improved solubility compared to the reference examples.

[3] = Rat PK profile (bioavailability, clearance, half-life); format: in vivo; details: male, Sprague Dawley, plasma, i.v. dose 1 mg/kg; for clearance / half-life: iv; for half-life: read-out: T½ (converted); for bioavailability: po, p.o. dose 3 mg/kg
Experimental: Male Sprague Dawley Rats 300-350 g (Charles River, UK) were group housed, n=3, under a 12 h light/dark cycle with food and water available ad libitum. At 17:00 on the day prior to dosing all food was removed. On the day of dosing animals were weighed, tail marked and dosed via oral gavage with compound at 3 mg/kg in a volume of 5 mL/kg. Animals were culled at 30 min, 1 h and 4 h post dose via intra-peritoneal administration of pentobarbital. Post mortem blood was withdrawn via cardiac puncture, and briefly stored in K2 EDTA blood tubes on ice before being spun at 14,000 g for 4 min at 4° C. Plasma was withdrawn into a 96 well plate, placed on dry ice and stored at −80° C. Brains were quickly dissected and placed on dry ice before storage at −80° C. Bioanalysis of plasma and brain samples is performed as detailed below. Methods were prepared with guidance from industry standard documents.^i,ii
A 10 mM DMSO stock is used to prepare spiking solutions of test compound in the range of 10-100,000 ng/mL in diluent (MeCN:water, 1;1). Calibration lines are prepared in control male Sprague-Dawley Rat plasma at known concentrations in the range of 1-10000 ng/mL by spiking 2.5 μL of calibration spiking solution into 25 μL control plasma. Experimental samples are thawed to RT and 25 μL aliquots are extracted alongside the calibration lines using protein precipitation (agitation for at least 5 min at RT with 400 μL of MeCN containing 25 ng/mL tolbutamide as an internal standard). Protein precipitates are separated from the extracted test compound by centrifugation at 4000 rpm for 5 min, 4° C. The resulting supernatants are diluted in a ratio of 1:2 with a relevant diluent (e.g. 0.1% formic acid in water or 1:1 MeOH:water). Samples are analysed by UPLC-MS/MS on either an API6500 QTrap or Waters 30 TQS mass spectrometer using previously optimised analytical MRM (multiple reaction monitoring) methods, specific to the test compound. The concentration of test compound in isolated samples is determined following analysis of the samples against the two replicates of the calibration line, injected before and after the sample set with an appropriate regression and weighting used. Only samples within 20% of the expected test concentration are included in the calibration line and any samples that fall outside of the limits of the calibration line will be deemed to be less than or above the limit of quantification (LLoQ/ALoQ).
Pharmacokinetic parameters such as bioavailability (% F), clearance (CL), half-life (T½) and volume of distribution are calculated by non-compartmental analysis using Phoenix Winnonlin 64 software (build 8.0). The bioavailability was calculated from p.o. dosed rats, whereas the clearance and half-life were calculated from i.v. dosed rats. Briefly, in vivo plasma concentrations, timepoints and dose values are imported into the software in a compatible format. Plasma concentration for each animal is plotted against time, and the elimination phase identified and selected. The area under the curve for each plot is calculated using a linear trapezoidal linear interpolation from which pharmacokinetic parameters can subsequently be determined. […] Compounds of the invention have much improved clearance (CL) and half-life (T½) compared to the reference examples.

SMILES | Kp [1] | pIC50 (hERG channel) | solubility at 30 min [2] | clearance [3] | half-life [3] | bioavailability [3] | further results
COc1ccc(-n2cc(C(=O)Nc3ccc(OC(F)(F)Cl)cc3)ccc2=O)cn1 [Example 13, N-[4-[Chloro(difluoro)methoxy]phenyl]-1-(6-methoxy-3-pyridyl)-6-oxo-pyridine-3-carboxamide] | 0.79 | – | – | – | – | – | –
O=C(Nc1ccc(OC(F)(F)Cl)cc1)c1ccc(=O)n(-c2ccc(F)c(F)c2)c1 [Example 24, N-[4-(Chlorodifluoromethoxy)phenyl]-1-(3,4-difluorophenyl)-6-oxo-1,6-dihydropyridine-3-carboxamide] | 0.68 | < 5.00 | – | – | – | – | –
COc1cccc(-n2cc(C(=O)Nc3ccc(OC(F)(F)Cl)cc3)ccc2=O)c1 [Example 35, N-[4-(Chlorodifluoromethoxy)phenyl]-1-(3-methoxyphenyl)-6-oxo-1,6-dihydropyridine-3-carboxamide] | – | < 5.00 | – | – | – | – | Kp at 1 h ([1]; timepoint 1 h): 1.11
O=C(Nc1ccc(OC(F)(F)Cl)cc1)c1ccc(=O)n(-c2ccc(F)cc2)c1 [Example 42, N-[4-(Chlorodifluoromethoxy)phenyl]-1-(4-fluorophenyl)-6-oxo-1,6-dihydropyridine-3-carboxamide] | 0.98 | – | 120 µM (≈ 49.1 µg/mL) | – | – | – | –
O=C(Nc1ccc(OC(F)(F)Cl)cc1)c1ccc(=O)n(-c2cccc(F)c2)c1 [Example 47, N-[4-(Chlorodifluoromethoxy)phenyl]-1-(3-fluorophenyl)-6-oxo-1,6-dihydropyridine-3-carboxamide] | 1.54 | < 5.00 | – | – | – | – | –
Cc1ccc(-n2cc(C(=O)Nc3ccc(OC(F)(F)Cl)cc3)ccc2=O)cn1 [Example 65, N-[4-(Chlorodifluoromethoxy)phenyl]-6′-methyl-2-oxo-2H-[1,3′-bipyridine]-5-carboxamide] | 0.31 | – | 170 µM (≈ 69 µg/mL) | – | – | – | –
Cn1cc(C(=O)Nc2ccc(OC(F)(F)Cl)cc2)cc(-c2cccnc2)c1=O [Example 81, N-[4-[Chloro(difluoro)methoxy]phenyl]-1-methyl-6-oxo-5-(3-pyridyl)pyridine-3-carboxamide] | – | – | – | 3 mL/min/kg | 6.2 h | 102% | –
Cn1cc(C(=O)Nc2ccc(OC(F)(F)Cl)cc2)cc(-c2ccccc2)c1=O [Example 88, N-[4-[Chloro(difluoro)methoxy]phenyl]-1-methyl-6-oxo-5-phenyl-pyridine-3-carboxamide] | 0.69 | – | – | – | – | – | –
O=C(Nc1ccc(OC(F)(F)Cl)cc1)c1cnc(N2CC[C@@H](O)C2)c(-c2ccn[nH]2)c1 [Ref. ex. 1, N-[4-[Chloro(difluoro)methoxy]phenyl]-6-[(3R)-3-hydroxypyrrolidin-1-yl]-5-(1H-pyrazol-5-yl)pyridine-3-carboxamide, reference compound] | – | – | – | 22 mL/min/kg | 2.1 h | 4% | –
O=C(Nc1ccc(OC(F)(F)F)cc1)c1cncc(-c2cccnc2)c1 [Ref. ex. 4, 5-(3-Pyridyl)-N-[4-(trifluoromethoxy)phenyl]pyridine-3-carboxamide, reference compound] | – | 5.33 | < 5 µM | 12 mL/min/kg | 1.2 h | 113% | –
